Measurements as given in patent US9796984B2, “Protection against herbivores” (priority 2004, dated 2017).
Where two headings read alike, the source gives them in different places.

Tests used:
LeARG2 [1] = test: Effect of various compounds on arginase activity, LeARG2; type: biochemical, Lycopersicon esculentum (tomato)
Procedure: (§1) Homogenates were centrifuged at 20,000×g for 10 min at 4° C., and the supernatants were used as the enzyme source. Recombinant LeARG enzyme was prepared as described above. Protein concentrations were determined as described above. Arginase activity was measured with a spectrophotometric assay for detection of urea (Alabadi et al., Plant Physiol. 112:1237-1244 (1996)), with minor modifications. The enzyme solution was activated with 1 mM MnCl2 at 37° C. for 60 min. […] Reactions were carried out at 37° C. for 20 min and stopped by the addition of 500 μl of 15% (v/v) perchloric acid. A 200-μl aliquot was mixed vigorously with 3 ml of acid mixture [9% (v/v) of phosphoric acid and 27% (v/v) of sulfuric acid] and 100 μl of 3% (w/v) α-isonitrosopropiophenone (Sigma) in 95% ethanol. This mixture was heated in a boiling water bath in the dark for 60 min and cooled for 10 min to room temperature. The OD540 was recorded on a Uvikon 933 spectrophotometer (Research Instruments, San Diego, Calif.). Substrate specificity tests were performed as described above with the exception that agmatine and other related compounds were added in place of L-arginine, to a final concentration of 250 mM. Substrates tested were obtained from Sigma. […] Inhibitor studies were conducted with test compounds that were dissolved in water and then diluted into the assay buffer at various concentrations prior to addition of enzyme. For example, 1 μl of a 5-mM L-NOHA stock was added to 489 μl of assay buffer, followed by addition of 10 μl of enzyme solution. The reaction was carried out as described above. L-NOHA was obtained from Cayman Chemical (Ann Arbor, Mich.). [table]

LeARG1 [2] = test: Effect of various compounds on arginase activity, LeARG1; type: biochemical, Lycopersicon esculentum (tomato)
Procedure: as §1

LeARG2 [3] = test: Substrate specificity of tomato arginases (urea detection), recombinant LeARG2; type: biochemical, Lycopersicon esculentum (tomato); conditions: 250 mM substrate; for Activity: 50 mM CHES pH 9.6, 2 mM MnCl2, 37° C., 30 min, mean and SD of triplet reactions; for activity relative to that obtained with L-arginine: pH 9.6
LeARG1 [4] = test: Substrate specificity of tomato arginases (urea detection), recombinant LeARG1; type: biochemical, Lycopersicon esculentum (tomato); conditions: 250 mM substrate; for Activity: 50 mM CHES pH 9.6, 2 mM MnCl2, 37° C., 30 min, mean and SD of triplet reactions; for activity relative to that obtained with L-arginine: pH 9.6
Bovine arginase = target: T1, Bovine arginase (Bos taurus, UniProt Q2KJ64); test: Substrate specificity (urea detection), bovine arginase; type: biochemical; conditions: 250 mM substrate; for Activity: 50 mM CHES pH 9.6, 2 mM MnCl2, 37° C., 30 min, mean and SD of triplet reactions; for activity relative to that obtained with L-arginine: pH 9.6
T1 sequence (Q2KJ64 1-322): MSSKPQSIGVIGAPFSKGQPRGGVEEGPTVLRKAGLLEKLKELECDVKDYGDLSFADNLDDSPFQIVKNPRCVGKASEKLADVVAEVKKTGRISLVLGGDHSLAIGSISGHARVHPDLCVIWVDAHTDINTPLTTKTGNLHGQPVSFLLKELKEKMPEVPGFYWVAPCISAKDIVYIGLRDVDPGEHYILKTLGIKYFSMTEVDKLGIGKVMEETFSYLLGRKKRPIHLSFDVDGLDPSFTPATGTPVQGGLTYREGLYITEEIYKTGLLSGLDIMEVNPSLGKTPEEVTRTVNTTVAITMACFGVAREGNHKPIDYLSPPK

LeARG2 [5] = test: RNA blot analysis of LeARG2 transcripts in treated tomato leaves; design: species or system Lycopersicon esculentum (tomato); conditions: in vivo
LeARG1 [6] = test: RNA blot analysis of LeARG1 transcripts in treated tomato leaves; design: species or system Lycopersicon esculentum (tomato); conditions: in vivo
threonine deaminase (TD) [7] = target: T2, threonine deaminase (TD) (Solanum lycopersicum, UniProt P25306); type: biochemical; conditions: midgut extracts of larvae grown on WT plants; Ile up to mM
T2 construct: from tissue; host or cells: desalted crude extracts of methyl-JA-treated tomato leaves, and of midgut content of M. sexta larvae reared on WT tomato
T2 sequence (P25306 52-418): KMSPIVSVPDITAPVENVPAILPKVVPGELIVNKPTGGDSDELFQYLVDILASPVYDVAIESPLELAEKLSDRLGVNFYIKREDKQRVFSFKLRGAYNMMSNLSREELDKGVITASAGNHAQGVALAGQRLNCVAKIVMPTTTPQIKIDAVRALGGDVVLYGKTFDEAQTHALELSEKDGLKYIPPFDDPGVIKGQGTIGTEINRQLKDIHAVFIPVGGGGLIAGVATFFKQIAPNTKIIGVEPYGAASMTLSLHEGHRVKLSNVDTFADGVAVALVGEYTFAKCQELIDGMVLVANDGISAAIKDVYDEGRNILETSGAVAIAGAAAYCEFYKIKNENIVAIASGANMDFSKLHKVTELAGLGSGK

threonine deaminase (TD) [8] = type: biochemical; conditions: extracts of methyl-JA-treated tomato leaves
tomato arginase = test: Inhibition of tomato arginase by NOHA; type: biochemical, Lycopersicon esculentum (tomato)
Procedure: as §1, with “Mich.).” for “Mich.). [table]”

arginase activity = test: L-arginase activity in tomato leaf protein extracts; type: biochemical, Lycopersicon esculentum (tomato); conditions: exogenous MeJA vapor
[9] = compound 5.0 mM, 25 mM L-arginine, % of control reaction
[10] = compound 0.2 mM, 25 mM L-arginine, % of control reaction

OCCS [2-Mercaptoethanol]
Relative activity (%) (LeARG2 [1]): 80% | Relative activity (%) (LeARG1 [2]): 81%

CC(S)C(=O)O (centres unmarked) [2-Mercaptopropionate]
Relative activity (%) (LeARG2 [1]; [9]): 38% | Relative activity (%) (LeARG1 [2]; [9]): 38%

O=C(O)CCS [3 -Mercaptopropionate]
Relative activity (%) (LeARG2 [1]; [9]): 26% | Relative activity (%) (LeARG1 [2]; [9]): 24%

N=C(N)NCCCCN [Agmatine]
Activity (LeARG2 [3]): 41 ± 6 μmol/mg protein/h | activity relative to that obtained with L-arginine (LeARG2 [3]): (0.6%) | Activity (LeARG1 [4]): 40 ± 3 μmol/mg protein/h | activity relative to that obtained with L-arginine (LeARG1 [4]): (0.5%) | Activity (Bovine arginase): 12 ± 2 μmol/mg protein/h | activity relative to that obtained with L-arginine (Bovine arginase): (0.2%)

CC[C@H]1C=C(C(=O)N[C@@]2(C(=O)O)C[C@@H]2CC)[C@H]2CCC(=O)[C@H]2C1 [COR, coronatine]
LeARG2 expression in leaves (LeARG2 [5]): necessary and sufficient | LeARG1 expression in leaves (LeARG1 [6]): not induced

N=C(N)NOCC[C@H](N)C(=O)O [Canavanine]
Activity (LeARG2 [3]): 9 ± 1 μmol/mg protein/h | activity relative to that obtained with L-arginine (LeARG2 [3]): (0.1%) | Activity (LeARG1 [4]): 3 ± 1 μmol/mg protein/h | activity relative to that obtained with L-arginine (LeARG1 [4]): (<0.1%) | Activity (Bovine arginase): 14 ± 2 μmol/mg protein/h | activity relative to that obtained with L-arginine (Bovine arginase): (0.2%)

N=C(N)NCCC[C@@H](N)C(=O)O [D-Arginine]
Activity (LeARG2 [3]): 250 ± 5 μmol/mg protein/h | activity relative to that obtained with L-arginine (LeARG2 [3]): (3.6%) | Activity (LeARG1 [4]): 195 ± 2 μmol/mg protein/h | activity relative to that obtained with L-arginine (LeARG1 [4]): (2.2%) | Activity (Bovine arginase): 32 ± 13 μmol/mg protein/h | activity relative to that obtained with L-arginine (Bovine arginase): (0.5%)

N=C(N)NCCCC[C@H](N)C(=O)O [Homoarginine]
Activity (LeARG2 [3]): 916 ± 16 μmol/mg protein/h | activity relative to that obtained with L-arginine (LeARG2 [3]): (13%) | Activity (LeARG1 [4]): 1269 ± 2 μmol/mg protein/h | activity relative to that obtained with L-arginine (LeARG1 [4]): (14%)

CC[C@H](C)[C@H](N)C(=O)O [Ile, isoleucine]
TD activity in the presence of Ile (threonine deaminase (TD) [7]): not significantly inhibited | TD activity in the presence of Ile (threonine deaminase (TD) [8]): strongly inhibited

NCCC[C@H](N)C(=O)O [L- Ornithine]
Relative activity (%) (LeARG2 [1]; [9]): 88% | Relative activity (%) (LeARG1 [2]; [9]): 72%

N=C(N)NCCC[C@H](N)C(=O)O [L-Arginine]
Activity (LeARG2 [3]): 7016 ± 86 μmol/mg protein/h | activity relative to that obtained with L-arginine (LeARG2 [3]): (100%) | Activity (LeARG1 [4]): 8848 ± 177 μmol/mg protein/h | activity relative to that obtained with L-arginine (LeARG1 [4]): (100%) | Activity (Bovine arginase): 6608 ± 351 μmol/mg protein/h | activity relative to that obtained with L-arginine (Bovine arginase): (100%)

NC(=NCCC[C@H](N)C(=O)O)NO [L-NOHA, N^G-hydroxy-L-arginine]
Ki lower than the Km for L-arginine (tomato arginase): more than 1000 fold | mode of inhibition (tomato arginase; plant and non-plant arginases): competitive inhibitor | Ki (tomato arginase; plant enzymes (LeARG1 and LeARG2)): ~14 µM | Relative activity (%) (LeARG2 [1]; [10]): 5% | Relative activity (%) (LeARG1 [2]; [10]): 7%

CC/C=C\CC1C(=O)CCC1CC(=O)OC (centres unmarked) [MeJA]
LeARG2 expression in leaves (LeARG2 [5]): strongly elicited | LeARG1 expression in leaves (LeARG1 [6]): low level | arginase activity in leaves after treatment (arginase activity): increase

O=C(O)CS [Mercaptoacetate]
Relative activity (%) (LeARG2 [1]; [9]): 26% | Relative activity (%) (LeARG1 [2]; [9]): 28%
